The values below come from US20140213576A1, “NOVEL COMPOUND USEFUL FOR THE TREATMENT OF DEGENERATIVE AND INFLAMMATORY DISEASES” (GALAPAGOS NV, priority 2013, published 2014).

In one assay the target is T1, JAK1 (Homo sapiens, UniProt P23458).
T1 construct: Recombinant human JAK1 (catalytic domain, amino acids 866-1154; catalog number PV4774); purchased Invitrogen PV4774
Kind of assay: JAK1 Ki determination assay. It counts as biochemical. To be noted: Lineweaver-Burk, varying ATP, Ulight-JAK-1 peptide; read-out: Ki against JAK1. As to the method: For the determination of Ki, different amounts of compound were mixed with the enzyme and the enzymatic reaction was followed as a function of ATP concentration. The Ki was determined by means of double reciprocal plotting of Km vs compound concentration (Lineweaver-Burk plot). 1 ng of JAK1 (Invitrogen, PV4774) is used in the assay. The substrate was 50 nM Ulight-JAK-1 (Tyr1023) Peptide (Perkin Elmer, TRF0121) The reaction is performed in 25 mM MOPS pH 6.8, 0.01%, 2 mM DTT, 5 mM MgCl2 Brij-35 with varying concentrations of ATP and compound. Phosphorylated substrate was measured using an Eu-labeled anti-phosphotyrosine antibody PT66 (Perkin Elmer, AD0068) as described in 1.1.2. Readout was performed on the envision (Perkin Elmer) with excitation at 320 nm and emission followed at 615 nm and 665 nm.

The target in assay [1] is T2, Recombinant human JAK1 (catalytic domain, amino acids 866-1154) (Homo sapiens, UniProt P23458).
T2 construct: Recombinant human JAK1 (catalytic domain, amino acids 866-1154; catalog number PV4774); purchased Invitrogen PV4774
T2 sequence (P23458 866-1154): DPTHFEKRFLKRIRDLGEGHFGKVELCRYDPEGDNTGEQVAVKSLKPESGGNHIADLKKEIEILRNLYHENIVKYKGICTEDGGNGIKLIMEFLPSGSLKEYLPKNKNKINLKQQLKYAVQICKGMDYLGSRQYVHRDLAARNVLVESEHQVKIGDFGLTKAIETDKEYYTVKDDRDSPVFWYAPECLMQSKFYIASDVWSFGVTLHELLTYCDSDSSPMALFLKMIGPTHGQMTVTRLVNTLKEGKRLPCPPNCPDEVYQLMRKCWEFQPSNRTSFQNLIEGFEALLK
As to the kind of experiment: JAK1 Ulight-JAK1 peptide assay. The format is biochemical. The protocol:
Recombinant human JAK1 (catalytic domain, amino acids 866-1154; catalog number PV4774) was purchased from Invitrogen. 1 ng of JAK1 was incubated with 20 nM Ulight-JAK1(tyr1023) peptide (Perkin Elmer catalog number TRF0121) in kinase reaction buffer (25 mM MOPS pH6.8, 0.01% Brij-35, 5 mM MgCl2, 2 mM DTT, 7 μM ATP) with or without 4 μL containing test compound or vehicle (DMSO, 1% final concentration), in a total volume of 20 μL, in a white 384 Opti plate (Perkin Elmer, catalog number 6007290). After 60 min at room temperature, reactions were stopped by adding 20 μL/well of detection mixture (1× detection buffer (Perkin Elmer, catalog number CR97-100C), 0.5 nM Europium-anti-phosphotyrosine (PT66) (Perkin Elmer, catalog number AD0068), 10 mM EDTA). Readout is performed using the Envision with excitation at 320 nm and measuring emission at 615 nm (Perkin Elmer). Kinase activity was calculated by subtracting relative fluorescence units (RFU) obtained in the presence of a positive control inhibitor (10 μM staurosporine) from RFU obtained in the presence of vehicle. The ability of a test compound to inhibit this activity was determined as:
Percentage inhibition=((RFU determined for sample with test compound present−RFU determined for sample with positive control inhibitor) divided by (RFU determined in the presence of vehicle−RFU determined for sample with positive control inhibitor))*100.
Dose dilution series were prepared for the compounds enabling the testing of dose-response effects in the JAK1 assay and the calculation of the IC50 for the compound. Each compound is routinely tested at concentration of 20 μM followed by a ⅕ serial dilution, 10 points in a final concentration of 1% DMSO. […] The data are expressed as the average IC50 from the assays±standard error of the mean.

For the next assay, the target named is T3, JAK2 (Homo sapiens, UniProt O60674).
T3 construct: Recombinant human JAK2 catalytic domain (amino acids 808-1132; catalog number PV4210); purchased Invitrogen PV4210
T3 sequence (O60674 808-1132): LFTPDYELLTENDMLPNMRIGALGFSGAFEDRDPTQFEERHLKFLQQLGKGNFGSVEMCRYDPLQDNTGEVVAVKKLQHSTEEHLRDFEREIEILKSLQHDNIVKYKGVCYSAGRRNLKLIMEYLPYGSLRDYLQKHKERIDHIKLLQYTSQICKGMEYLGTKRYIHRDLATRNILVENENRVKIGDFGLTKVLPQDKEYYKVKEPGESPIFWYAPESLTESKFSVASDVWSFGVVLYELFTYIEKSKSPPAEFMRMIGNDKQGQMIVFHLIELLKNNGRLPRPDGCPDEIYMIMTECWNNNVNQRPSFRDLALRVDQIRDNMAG
As to the kind of experiment: JAK2 Ki determination assay (kinase tracer 236 binding). To be noted: binding experiment, 25 nM kinase tracer 236; read-out: Ki against JAK2. The protocol: JAK2 (Invitrogen, PV4210) was used at a final concentration of 5 nM. The binding experiment was performed in 50 mM Hepes pH 7.5, 0.01% Brij-35, 10 mM MgCl2, 1 mM EGTA using 25 nM kinase tracer 236 (Invitrogen, PV5592) and 2 nM Eu-anti-GST (Invitrogen, PV5594) with varying compound concentrations. Detection of tracer was performed according to the manufacturer's procedure.

The test system of another assay is BA/F3 (ATCC CRL-12015). As to the kind of experiment: BA/F3 viability assay. The settings on record: IL3-dependent viability, ATP-lite, individual determinations. The format is cell-based, murine. The text has this:
The protocol describes the methods to analyse the activity of compounds on the ability to sustain the IL3-dependent viability of BA/F3 (ATCC CRL-12015; Collins et al, 1992).

In assay [2] the target is T4, Recombinant human JAK3 catalytic domain (Homo sapiens, UniProt P52333).
T4 construct: Recombinant human JAK3 catalytic domain (amino acids 781-1124; catalog number PV3855); purchased Invitrogen PV3855
T4 sequence (P52333 781-1124): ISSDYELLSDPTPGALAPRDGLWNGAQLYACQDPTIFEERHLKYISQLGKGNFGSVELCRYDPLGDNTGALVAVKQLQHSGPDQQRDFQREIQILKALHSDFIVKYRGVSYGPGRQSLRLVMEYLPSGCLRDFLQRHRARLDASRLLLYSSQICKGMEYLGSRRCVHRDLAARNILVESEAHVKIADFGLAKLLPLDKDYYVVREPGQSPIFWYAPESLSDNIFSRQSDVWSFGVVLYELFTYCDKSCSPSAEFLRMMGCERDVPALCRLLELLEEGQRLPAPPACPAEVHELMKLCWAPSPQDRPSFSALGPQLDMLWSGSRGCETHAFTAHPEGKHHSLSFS
Kind of assay: JAK3 inhibition assay (polyGT substrate). The format is biochemical. The settings on record: 1 μM ATP, individual determinations, read-out: IC50 against JAK3. The protocol: Recombinant human JAK3 catalytic domain (amino acids 781-1124; catalog number PV3855) was purchased from Invitrogen. 0.5 ng JAK3 protein was incubated with 2.5 μg polyGT substrate (Sigma catalog number P0275) in kinase reaction buffer (25 mM Tris pH 7.5, 0.5 mM EGTA, 10 mM MgCl2, 2.5 mM DTT, 0.5 mM Na3VO4, 5 mM b-glycerolphosphate, 0.01% Triton X-100, 1 μM non-radioactive ATP, 0.25 μCi ^33P-gamma-ATP (GE Healthcare, catalog number AH9968) final concentrations) with or without 5 μL containing test compound or vehicle (DMSO, 1% final concentration), in a total volume of 25 μL, in a polypropylene 96-well plate (Greiner, V-bottom). […]
6005177) using a cell harvester (Perkin Elmer). […] 40 μL/well of Microscint-20 was added, the top of the plates was sealed and readout was performed using the Topcount (Perkin Elmer). Kinase activity was calculated by subtracting counts per min (cpm) obtained in the presence of a positive control inhibitor (10 μM staurosporine) from cpm obtained in the presence of vehicle. The ability of a test compound to inhibit this activity was determined as:
Percentage inhibition=((cpm determined for sample with test compound present−cpm determined for sample with positive control inhibitor) divided by (cpm determined in the presence of vehicle−cpm determined for sample with positive control inhibitor))*100. […]

Several values for one entry are separate records, joined by “and”; a condition that tells them apart may be missing. Equal entries are not always repeated.

T1 sequence (P23458 866-1154): as the sequence (P23458 866-1154) above

In general, Ki refers to a measure of affinity in units of concentration, obtained from inhibition or displacement. Broadly, the IC50 is the concentration needed to halve the response being measured. Turning to `CCc1cc(C2CN(S(C)(=O)=O)C2)ncc1N(C)c1cc2c(cn1)ncn2C` [Compound 1, [4-Ethyl-6-(1-methanesulfonyl-azetidin-3-yl)-pyridin-3-yl]-methyl-(1-methyl-1H-imidazo[4,5-d]pyridin-6-yl)-amine], the inhibitory constant (Ki) at JAK1 was found to be 9.21 nM; at JAK2 it was 62.6 nM. Besides, the “selectivity for JAK1 vs the other JAK family members (JAK2, JAK3, and TYK2)” value in assay [1] is on record as “at least 10 fold”. The IC50 in assay [1] (Ulight-JAK1(tyr1023) peptide, 7 μM ATP, individual determinations, read-out: IC50 against JAK1) is 6.59 nM and 7.68 nM and 12.9 nM and 4.47 nM and 10.2 nM and 9.11 nM and 5.42 nM and 8.37 nM and 9.43 nM and 6.94 nM; with BA/F3 (ATCC CRL-12015) (48 h, listed as compound of the invention), 8020 nM; in the assay on BA/F3 (ATCC CRL-12015) (Mus musculus, BaF3, 48 h), above 11100 nM; in assay [2], 1320 nM and 523 nM and 460 nM and 345 nM and 689 nM and 685 nM and 515 nM and 324 nM and 537 nM. For the same molecule, the “JAK1 selectivity vs JAK2” value in assay [1] (vs JAK2) was above 15 fold. For the same molecule, the “JAK1 selectivity vs JAK3” value in assay [1] (vs JAK3) is given as above 70 fold. In addition, the “JAK1 selectivity vs TYK2” value in assay [1] (vs TYK2) was above 80 fold.
